This is an account of results in US9604975B2, “Indolyl-pyridone derivatives having checkpoint kinase 1 inhibitory activity” (Vernalis (R&D) Ltd., priority 2009, dated 2017).

A value given as a limit tells only on which side of the number the result lay.

Usually IC50 stands for the concentration needed to halve the response being measured.

For this assay, the target named is T1, CHK1 (Homo sapiens, UniProt O14757).
T1 construct: His; purchased Invitrogen
T1 sequence (O14757 1-476): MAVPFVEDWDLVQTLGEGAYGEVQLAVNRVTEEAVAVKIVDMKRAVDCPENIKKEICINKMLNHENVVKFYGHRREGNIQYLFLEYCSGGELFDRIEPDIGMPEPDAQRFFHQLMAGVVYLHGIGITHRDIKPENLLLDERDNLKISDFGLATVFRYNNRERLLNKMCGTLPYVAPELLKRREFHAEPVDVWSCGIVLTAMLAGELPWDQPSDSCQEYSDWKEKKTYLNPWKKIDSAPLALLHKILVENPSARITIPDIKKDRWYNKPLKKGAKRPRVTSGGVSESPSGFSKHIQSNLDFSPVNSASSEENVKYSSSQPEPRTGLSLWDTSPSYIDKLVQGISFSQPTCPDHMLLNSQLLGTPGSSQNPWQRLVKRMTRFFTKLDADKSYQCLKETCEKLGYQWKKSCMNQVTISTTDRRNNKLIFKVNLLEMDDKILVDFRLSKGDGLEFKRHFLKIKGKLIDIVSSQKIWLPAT
The assay can be described thus: CHK1 Enzyme Assay (phosphorylation of Chktide peptide, 33P-ATP filter assay). As to conditions: 12.5 nM His-CHK1, 0.01 mM ATP, 40 minutes at 30° C.; read-out: CHK1 Enzyme Activity (IC50 range). It counts as biochemical. As to the method: Assays for the CHK1 kinase activity were carried out by monitoring the phosphorylation of a synthetic peptide Chktide with the amino acid sequence, […]. The assay mixture containing the inhibitor and CHK1 enzyme was mixed together in a microtiter plate in a final volume of 50 μl and incubated for 40 minutes at 30° C.
The assay mixture contained 0.01 mM unlabeled ATP, 0.5 μCi ^33P-γ-ATP, 14.8 μM Chktide, 0.1 mg/mL BSA, 50 mM Hepes-NaOH pH 7.5 and 12.5 nM His-CHK1 (Invitrogen) enzyme. The reaction was stopped by adding 50 μL of 50 mM phosphoric acid. 90 μL of the mixture was transferred to a pre-wetted 96-well multi-screen MAPHNOB filtration plate (Millipore) and filtered on a vacuum manifold. The filter plate was washed with 3 successive additions of 200 μl 50 mM phosphoric acid and then with 100 μL methanol. The filtration plate was dried for 10 min at 65° C., scintillant added and phosphorylated peptide quantified in a scintillation counter (Trilux, PerkinElmer).
Turning to `Cc1ccc(Cn2cc(C(=O)Nc3c[nH]c(=O)c(-c4cc5ccccc5[nH]4)c3)cn2)cc1` [Example 29, 1-(4-Methyl-benzyl)-1H-pyrazole-4-carboxylic acid [5-(1H-indol-2-yl)-6-oxo-1,6-dihydro-pyridin-3-yl]-amide], the IC50 was less than 100 nM.

Turning to `Cc1[nH]c(=O)c(-c2cc3ccccc3[nH]2)cc1NC(=O)c1cnn(Cc2cccc(F)c2)c1` [Example 30, 1-(3-Fluoro-benzyl)-1H-pyrazole-4-carboxylic acid [5-(1H-indol-2-yl)-2-methyl-6-oxo-1,6-dihydro-pyridin-3-yl]-amide], the IC50 lay in the range of 100 to 500 nM. `Cc1[nH]c(=O)c(-c2cc3ccccc3[nH]2)cc1NC(=O)c1cnn(Cc2ccccc2)c1` [Example 31, 1-Benzyl-1H-pyrazole-4-carboxylic acid [5-(1H-indol-2-yl)-2-methyl-6-oxo-1,6-dihydro-pyridin-3-yl]-amide]: the IC50 is less than 100 nM. For `Cc1[nH]c(=O)c(-c2cc3ccccc3[nH]2)cc1NC(=O)c1cnn(Cc2ccc(F)cc2)c1` [Example 32, 1-(4-Fluoro-benzyl)-1H-pyrazole-4-carboxylic acid [5-(1H-indol-2-yl)-2-methyl-6-oxo-1,6-dihydro-pyridin-3-yl]-amide], the concentration for half-maximal inhibition (IC50) was 100 to 500 nM.

`Cc1[nH]c(=O)c(-c2cc3ccccc3[nH]2)cc1NC(=O)c1cnn(Cc2ccc(F)c(F)c2)c1` [Example 33, 1-(3,4-Difluoro-benzyl)-1H-pyrazole-4-carboxylic acid [5-(1H-indol-2-yl)-2-methyl-6-oxo-1,6-dihydro-pyridin-3-yl]-amide]: the half-maximal inhibitory concentration (IC50) was 100 to 500 nM.

As to `O=C(Nc1cnn(CC2CCCCC2)c1)c1c[nH]c(=O)c(-c2cc3ccccc3[nH]2)c1` [Example 34, 5-(1H-Indol-2-yl)-6-oxo-1,6-dihydro-pyridine-3-carboxylic acid (1-cyclohexylmethyl-1H-pyrazol-4-yl)-amide], the IC50 is 500 to 1500 nM.

`O=C(Nc1cnn(Cc2cccnc2)c1)c1c[nH]c(=O)c(-c2cc3ccccc3[nH]2)c1` [Example 35, 5-(1H-Indol-2-yl)-6-oxo-1,6-dihydro-pyridine-3-carboxylic acid (1-pyridin-3-ylmethyl-1H-pyrazol-4-yl)-amide]: the IC50 is less than 100 nM. For `O=C(Nc1cnn(Cc2ccncc2)c1)c1c[nH]c(=O)c(-c2cc3ccccc3[nH]2)c1` [Example 36, 5-(1H-Indol-2-yl)-6-oxo-1,6-dihydro-pyridine-3-carboxylic acid (1-pyridin-4-ylmethyl-1H-pyrazol-4-yl)-amide], the 50% inhibitory concentration (IC50) fell in the range of 100 to 500 nM. With `Cc1ccc(Cn2cc(C(=O)Nc3c[nH]c(=O)c(-c4cc5cc(CN6CCC(F)CC6)ccc5[nH]4)c3)cn2)cc1` [Example 37, 1-(4-Methyl-benzyl)-1H-pyrazole-4-carboxylic acid {5-[5-(4-fluoro-piperidin-1-ylmethyl)-1H-indol-2-yl]-6-oxo-1,6-dihydro-pyridin-3-yl}-amide] the figure was less than 100 nM; with `Cc1ccc(Cn2cc(C(=O)Nc3c[nH]c(=O)c(-c4cc5cc(CN6CCC(CO)CC6)ccc5[nH]4)c3)cn2)cc1` [Example 39, 1-(4-Methyl-benzyl)-1H-pyrazole-4-carboxylic acid {5-[5-(4-hydroxymethyl-piperidin-1-ylmethyl)-1H-indol-2-yl]-6-oxo-1,6-dihydro-pyridin-3-yl}-amide], less than 100 nM; with `Cc1ccc(Cn2cc(C(=O)Nc3c[nH]c(=O)c(-c4cc5cc(CN6CCOCC6)ccc5[nH]4)c3)cn2)cc1` [Example 40, 1-(4-Methyl-benzyl)-1H-pyrazole-4-carboxylic acid [5-(5-morpholin-4-ylmethyl-1H-indol-2-yl)-6-oxo-1,6-dihydro-pyridin-3-yl]-amide], less than 100 nM.

With `Cc1ccc(Cn2cc(C(=O)Nc3c[nH]c(=O)c(-c4cc5cc(CN6CCCC6)ccc5[nH]4)c3)cn2)cc1` [Example 41, 1-(4-Methyl-benzyl)-1H-pyrazole-4-carboxylic acid [6-oxo-5-(5-pyrrolidin-1-ylmethyl-1H-indol-2-yl)-1,6-dihydro-pyridin-3-yl]-amide], the IC50 is less than 100 nM.

Take `Cc1ccc(Cn2cc(C(=O)Nc3c[nH]c(=O)c(-c4cc5cc(CN6CC(O)C6)ccc5[nH]4)c3)cn2)cc1` [Example 42, 1-(4-Methyl-benzyl)-1H-pyrazole-4-carboxylic acid {5-[5-(3-hydroxy-azetidin-1-ylmethyl)-1H-indol-2-yl]-6-oxo-1,6-dihydro-pyridin-3-yl}-amide]: the half-inhibitory concentration (IC50) is less than 100 nM.

On to `Cc1ccc(Cn2cc(C(=O)Nc3c[nH]c(=O)c(-c4cc5cc(CN(C)CCO)ccc5[nH]4)c3)cn2)cc1` [Example 43, 1-(4-Methyl-benzyl)-1H-pyrazole-4-carboxylic acid [5-(5-{[(2-hydroxy-ethyl)-methyl-amino]-methyl}-1H-indol-2-yl)-6-oxo-1,6-dihydro-pyridin-3-yl]-amide], for which the 50% inhibitory concentration (IC50) was less than 100 nM.

As for `O=C(Nc1c[nH]c(=O)c(-c2cc3cc(CN4CCCCC4)ccc3[nH]2)c1)c1cnn(Cc2ccc(Cl)cc2)c1` [Example 44, 1-(4-Chloro-benzyl)-1H-pyrazole-4-carboxylic acid [6-oxo-5-(5-piperidin-1-ylmethyl-1H-indol-2-yl)-1,6-dihydro-pyridin-3-yl]-amide], the IC50 was less than 100 nM.

For the compound `CCN(CCO)Cc1ccc2[nH]c(-c3cc(NC(=O)c4cnn(Cc5ccc(Cl)cc5)c4)c[nH]c3=O)cc2c1` [Example 45, 1-(4-Chloro-benzyl)-1H-pyrazole-4-carboxylic acid [5-(5-{[ethyl-(2-hydroxy-ethyl)-amino]-methyl}-1H-indol-2-yl)-6-oxo-1,6-dihydro-pyridin-3-yl]-amide], the IC50 is less than 100 nM. The figure for `O=C(Nc1c[nH]c(=O)c(-c2cc3cc(CNCCO)ccc3[nH]2)c1)c1cnn(Cc2ccc(Cl)cc2)c1` [Example 46, 1-(4-Chloro-benzyl)-1H-pyrazole-4-carboxylic acid (5-{5-[(2-hydroxy-ethylamino)-methyl]-1H-indol-2-yl}-6-oxo-1,6-dihydro-pyridin-3-yl)-amide] is less than 100 nM. With `O=C(Nc1c[nH]c(=O)c(-c2cc3cc(CN4CCC(F)CC4)ccc3[nH]2)c1)c1cnn(Cc2ccc(Cl)cc2)c1` [Example 47, 1-(4-Chloro-benzyl)-1H-pyrazole-4-carboxylic acid {5-[5-(4-fluoro-piperidin-1-ylmethyl)-1H-indol-2-yl]-6-oxo-1,6-dihydro-pyridin-3-yl}-amide] the figure was less than 100 nM; with `O=C(Nc1c[nH]c(=O)c(-c2cc3cc(CN4CCC(O)CC4)ccc3[nH]2)c1)c1cnn(Cc2ccc(Cl)cc2)c1` [Example 48, 1-(4-Chloro-benzyl)-1H-pyrazole-4-carboxylic acid {5-[5-(4-hydroxy-piperidin-1-ylmethyl)-1H-indol-2-yl]-6-oxo-1,6-dihydro-pyridin-3-yl}-amide], less than 100 nM; with `O=C(Nc1c[nH]c(=O)c(-c2cc3cc(CN4CCCC4)ccc3[nH]2)c1)c1cnn(Cc2ccccc2)c1` [Example 50, 1-Benzyl-1H-pyrazole-4-carboxylic acid [6-oxo-5-(5-pyrrolidin-1-ylmethyl-1H-indol-2-yl)-1,6-dihydro-pyridin-3-yl]-amide], less than 100 nM. With `O=C(Nc1c[nH]c(=O)c(-c2cc3cc(CN4CCOCC4)ccc3[nH]2)c1)c1cnn(Cc2ccccc2)c1` [Example 51, 1-Benzyl-1H-pyrazole-4-carboxylic acid [5-(5-morpholin-4-ylmethyl-1H-indol-2-yl)-6-oxo-1,6-dihydro-pyridin-3-yl]-amide], the 50% inhibitory concentration (IC50) is less than 100 nM.
